Experiments:
Conditions in all cases: 48 h
[1] = system: NOMO1; assay: cell viability relative to DMSO control; higher = less cytotoxic
Procedure, shortened: (§1)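 Library compounds in DMSO were pin-dosed into 1536-well plates (5 μl) holding NOMO1 or SEM (500 cells/well) or P12-Ichikawa (1000 cells/well) leukemia cells, across an 11-point threefold series of 47 μM to 0.79 nM. Each cell line had been adapted for at least four passages in each medium. CellTiter-Glo One luminescence was read after 48 h at 37°C. Viability is the per-plate percentage relative to DMSO wells, with cell-free wells as background.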

[2] = system: P12-Ichikawa; assay: as above
Procedure, shortened: as §1

[3] = system: SEM cells; assay: as above
Procedure, shortened: as §1

[4] = system: NOMO1; assay: AUC of viability dose-response curve (% viability x log10 dose units); higher = less sensitive
Procedure, shortened: (§2)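 Seeding of medium-adapted leukemia cells was at 500 or 1000 cells/well in 1536-well plates, followed by 48 h at 37°C with library compounds in DMSO at 11 threefold doses from 47 μM to 0.79 nM. CellTiter-Glo One luminescence was normalised per plate to DMSO and cell-free wells and fitted as a four-parameter log-logistic function of log10 dose. Area under the curve was integrated by trapezoidal rule, with curves exceeding full viability scaled and curves failing quality control removed.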

[5] = system: P12-Ichikawa; assay: as above
Procedure, shortened: as §2

[6] = system: SEM cells; assay: as above
Procedure, shortened: as §2

CC[C@H](CO)Nc1nc(NCc2ccccc2)c2ncn(C(C)C)c2n1
cell viability [%]
Conditions | [1] | [2] | [3]
HPLM + 10% dialyzed FBS, 0.000781 µM | 98.6 | 85.4 | 89.9
HPLM + 10% dialyzed FBS, 0.00234 µM | 95.1 | 93.9 | 96.2
HPLM + 10% dialyzed FBS, 0.00702 µM | 98.5 | 95.1 | 95.3
HPLM + 10% dialyzed FBS, 0.0211 µM | 99.4 | 91.7 | 86.9
HPLM + 10% dialyzed FBS, 0.0632 µM | 89.8 | 94.8 | 93.7
HPLM + 10% dialyzed FBS, 0.19 µM | 88 | 95.1 | 96.8
HPLM + 10% dialyzed FBS, 0.569 µM | 89.4 | 93.1 | 83.7
HPLM + 10% dialyzed FBS, 1.71 µM | 82.9 | 86.4 | 99.8
HPLM + 10% dialyzed FBS, 5.12 µM | 85.7 | 91.6 | 94
HPLM + 10% dialyzed FBS, 15.4 µM | 96.4 | 85.2 | 98.1
HPLM + 10% dialyzed FBS, 46.1 µM | 54.2 | 79.5 | 58.7
RPMI 5 mM glucose + 10% FBS, 0.000781 µM | 82.5 | 91.2 | 114
RPMI 5 mM glucose + 10% FBS, 0.00234 µM | 93.9 | 93.1 | 97.4
RPMI 5 mM glucose + 10% FBS, 0.00702 µM | 93.9 | 93.2 | 128
RPMI 5 mM glucose + 10% FBS, 0.0211 µM | 83.7 | 92.9 | 111
RPMI 5 mM glucose + 10% FBS, 0.0632 µM | 84.3 | 98.1 | 112
RPMI 5 mM glucose + 10% FBS, 0.19 µM | 88.3 | 95.2 | 126
RPMI 5 mM glucose + 10% FBS, 0.569 µM | 87.4 | 95.9 | 126
RPMI 5 mM glucose + 10% FBS, 1.71 µM | 79.5 | 82.8 | 99.9
RPMI 5 mM glucose + 10% FBS, 5.12 µM | 84.2 | 86.4 | 108
RPMI 5 mM glucose + 10% FBS, 15.4 µM | 77 | 77.6 | 120
RPMI 5 mM glucose + 10% FBS, 46.1 µM | 76.6 | 78.2 | 63.6
RPMI 5 mM glucose + 10% dialyzed FBS, 0.000781 µM | 96.7 | 91.2 | 102
RPMI 5 mM glucose + 10% dialyzed FBS, 0.00234 µM | 96.3 | 94.4 | 102
RPMI 5 mM glucose + 10% dialyzed FBS, 0.00702 µM | 85.2 | 95.5 | 88.6
RPMI 5 mM glucose + 10% dialyzed FBS, 0.0211 µM | 90.9 | 83.9 | 88.2
RPMI 5 mM glucose + 10% dialyzed FBS, 0.0632 µM | 94.1 | 89.5 | 90.8
RPMI 5 mM glucose + 10% dialyzed FBS, 0.19 µM | 86.2 | 94.3 | 95.6
RPMI 5 mM glucose + 10% dialyzed FBS, 0.569 µM | 95.2 | 92 | 98
RPMI 5 mM glucose + 10% dialyzed FBS, 1.71 µM | 90.1 | 88.7 | 97
RPMI 5 mM glucose + 10% dialyzed FBS, 5.12 µM | 94.2 | 87.3 | 102
RPMI 5 mM glucose + 10% dialyzed FBS, 15.4 µM | 77.3 | 86.6 | 88.1
RPMI 5 mM glucose + 10% dialyzed FBS, 46.1 µM | 70.3 | 82 | 35.3

AUC of viability dose-response curve
Conditions | [4] | [5] | [6]
HPLM + 10% dialyzed FBS | 432 | 432 | 438
RPMI 5 mM glucose + 10% FBS | 405 | 428 | 467
RPMI 5 mM glucose + 10% dialyzed FBS | 427 | 428 | 440

CN(C)c1ccc(-c2nc3c(N4CCN(CC(=O)Nc5nccs5)CC4)c(Cl)cnc3[nH]2)cc1
cell viability [%]
Conditions | [1] | [2] | [3]
HPLM + 10% dialyzed FBS, 0.000781 µM | 117 | 109 | 129
HPLM + 10% dialyzed FBS, 0.00234 µM | 130 | 107 | 102
HPLM + 10% dialyzed FBS, 0.00702 µM | 121 | 118 | 115
HPLM + 10% dialyzed FBS, 0.0211 µM | 124 | 110 | 112
HPLM + 10% dialyzed FBS, 0.0632 µM | 113 | 113 | 115
HPLM + 10% dialyzed FBS, 0.19 µM | 127 | 117 | 112
HPLM + 10% dialyzed FBS, 0.569 µM | 112 | 115 | 109
HPLM + 10% dialyzed FBS, 1.71 µM | 102 | 109 | 86.9
HPLM + 10% dialyzed FBS, 5.12 µM | 101 | 108 | 105
HPLM + 10% dialyzed FBS, 15.4 µM | 89.9 | 102 | 80
HPLM + 10% dialyzed FBS, 46.1 µM | 69.2 | 103 | 58.8
RPMI 5 mM glucose + 10% FBS, 0.000781 µM | 102 | 113 | 103
RPMI 5 mM glucose + 10% FBS, 0.00234 µM | 99.3 | 114 | 118
RPMI 5 mM glucose + 10% FBS, 0.00702 µM | 98.6 | 116 | 130
RPMI 5 mM glucose + 10% FBS, 0.0211 µM | 94.6 | 131 | 107
RPMI 5 mM glucose + 10% FBS, 0.0632 µM | 101 | 109 | 106
RPMI 5 mM glucose + 10% FBS, 0.19 µM | 108 | 125 | 124
RPMI 5 mM glucose + 10% FBS, 0.569 µM | 93.6 | 111 | 107
RPMI 5 mM glucose + 10% FBS, 1.71 µM | 109 | 115 | 87.7
RPMI 5 mM glucose + 10% FBS, 5.12 µM | 103 | 118 | 92.5
RPMI 5 mM glucose + 10% FBS, 15.4 µM | 89.9 | 95.9 | 70.3
RPMI 5 mM glucose + 10% FBS, 46.1 µM | 77.7 | 103 | 51.2
RPMI 5 mM glucose + 10% dialyzed FBS, 0.000781 µM | 108 | – | 105
RPMI 5 mM glucose + 10% dialyzed FBS, 0.00234 µM | 107 | – | 121
RPMI 5 mM glucose + 10% dialyzed FBS, 0.00702 µM | 103 | – | 120
RPMI 5 mM glucose + 10% dialyzed FBS, 0.0211 µM | 108 | – | 116
RPMI 5 mM glucose + 10% dialyzed FBS, 0.0632 µM | 113 | – | 107
RPMI 5 mM glucose + 10% dialyzed FBS, 0.19 µM | 106 | – | 111
RPMI 5 mM glucose + 10% dialyzed FBS, 0.569 µM | 101 | – | 102
RPMI 5 mM glucose + 10% dialyzed FBS, 1.71 µM | 107 | – | 89.7
RPMI 5 mM glucose + 10% dialyzed FBS, 5.12 µM | 98.3 | – | 97.9
RPMI 5 mM glucose + 10% dialyzed FBS, 15.4 µM | 94.8 | – | 71.1
RPMI 5 mM glucose + 10% dialyzed FBS, 46.1 µM | 70.3 | – | 49.6

AUC of viability dose-response curve
Conditions | [4] | [5] | [6]
HPLM + 10% dialyzed FBS | 431 | 468 | 429
RPMI 5 mM glucose + 10% FBS | 466 | 466 | 420
RPMI 5 mM glucose + 10% dialyzed FBS | 460 | 428 | 421

O=C(Nc1ccccc1)Nc1ccc(-c2ccc(C(=O)[C@@H]3CCC[C@H]3C(=O)O)cc2)cc1
cell viability [%]
Conditions | [1] | [2] | [3]
HPLM + 10% dialyzed FBS, 0.000781 µM | 109 | 105 | 101
HPLM + 10% dialyzed FBS, 0.00234 µM | 122 | 102 | 111
HPLM + 10% dialyzed FBS, 0.00702 µM | 103 | 117 | 101
HPLM + 10% dialyzed FBS, 0.0211 µM | 94.1 | 113 | 110
HPLM + 10% dialyzed FBS, 0.0632 µM | 119 | 113 | 110
HPLM + 10% dialyzed FBS, 0.19 µM | 98.3 | 122 | 103
HPLM + 10% dialyzed FBS, 0.569 µM | 99 | 96.7 | 99.8
HPLM + 10% dialyzed FBS, 1.71 µM | 77 | 105 | 107
HPLM + 10% dialyzed FBS, 5.12 µM | 67.2 | 90.8 | 108
HPLM + 10% dialyzed FBS, 15.4 µM | 66.7 | 87 | 106
HPLM + 10% dialyzed FBS, 46.1 µM | 56.5 | 79 | 105
RPMI 5 mM glucose + 10% FBS, 0.000781 µM | 109 | 110 | 102
RPMI 5 mM glucose + 10% FBS, 0.00234 µM | 111 | 117 | 102
RPMI 5 mM glucose + 10% FBS, 0.00702 µM | 98.6 | 100 | 111
RPMI 5 mM glucose + 10% FBS, 0.0211 µM | 101 | 113 | 108
RPMI 5 mM glucose + 10% FBS, 0.0632 µM | 110 | 116 | 109
RPMI 5 mM glucose + 10% FBS, 0.19 µM | 97.7 | 114 | 99.5
RPMI 5 mM glucose + 10% FBS, 0.569 µM | 100 | 118 | 114
RPMI 5 mM glucose + 10% FBS, 1.71 µM | 95.9 | 102 | 97.6
RPMI 5 mM glucose + 10% FBS, 5.12 µM | 90.6 | 92.8 | 94.6
RPMI 5 mM glucose + 10% FBS, 15.4 µM | 83.5 | 73 | 91.2
RPMI 5 mM glucose + 10% FBS, 46.1 µM | 69.5 | 86.2 | 114
RPMI 5 mM glucose + 10% dialyzed FBS, 0.000781 µM | 105 | 123 | 109
RPMI 5 mM glucose + 10% dialyzed FBS, 0.00234 µM | 121 | 121 | 103
RPMI 5 mM glucose + 10% dialyzed FBS, 0.00702 µM | 114 | 116 | 107
RPMI 5 mM glucose + 10% dialyzed FBS, 0.0211 µM | 105 | 104 | 124
RPMI 5 mM glucose + 10% dialyzed FBS, 0.0632 µM | 122 | 122 | 104
RPMI 5 mM glucose + 10% dialyzed FBS, 0.19 µM | 97.9 | 122 | 99.7
RPMI 5 mM glucose + 10% dialyzed FBS, 0.569 µM | 88.8 | 115 | 101
RPMI 5 mM glucose + 10% dialyzed FBS, 1.71 µM | 96 | 114 | 95.4
RPMI 5 mM glucose + 10% dialyzed FBS, 5.12 µM | 81.8 | 89.6 | 113
RPMI 5 mM glucose + 10% dialyzed FBS, 15.4 µM | 73.7 | 83.9 | 107
RPMI 5 mM glucose + 10% dialyzed FBS, 46.1 µM | 59.7 | 83.1 | 123

AUC of viability dose-response curve
Conditions | [4] | [5] | [6]
HPLM + 10% dialyzed FBS | 406 | 444 | 476
RPMI 5 mM glucose + 10% FBS | 441 | 444 | 467
RPMI 5 mM glucose + 10% dialyzed FBS | 409 | 443 | 468

— the supplement of paper PMC11451515
